Data published in paper PMC3746001 (ACS chemical biology, 2013).

Tests used:
Type in all cases: biochemical
[1] = molecular target: T1, human Y-family DNA polymerase kappa (hpol κ) (Homo sapiens, UniProt Q9UBT6); assay: Fluorescence-based polymerase assay, hpol κ
T1 sequence (Q9UBT6 19-526): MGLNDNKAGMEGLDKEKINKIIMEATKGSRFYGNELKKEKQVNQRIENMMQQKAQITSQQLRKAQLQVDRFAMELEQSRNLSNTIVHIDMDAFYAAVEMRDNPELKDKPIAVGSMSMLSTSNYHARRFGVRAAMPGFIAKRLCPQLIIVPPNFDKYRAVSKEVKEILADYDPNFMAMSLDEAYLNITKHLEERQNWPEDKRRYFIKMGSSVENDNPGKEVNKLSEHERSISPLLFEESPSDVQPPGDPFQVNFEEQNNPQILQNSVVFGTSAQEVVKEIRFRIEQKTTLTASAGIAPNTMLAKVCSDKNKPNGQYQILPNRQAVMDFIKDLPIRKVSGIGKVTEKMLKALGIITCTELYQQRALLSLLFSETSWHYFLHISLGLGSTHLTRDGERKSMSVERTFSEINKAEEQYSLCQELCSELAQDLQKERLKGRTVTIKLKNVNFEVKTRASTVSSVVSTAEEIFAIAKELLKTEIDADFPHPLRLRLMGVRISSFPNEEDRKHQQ

[2] = molecular target: T2, human DNA polymerase eta (hpol η) (Homo sapiens, UniProt Q9Y253); assay: Fluorescence-based polymerase strand-displacement assay, hpol η; conditions: IC50 for inhibition of hpol η, 10 nM hpol η, 50 nM DNA, 0.1 mM dTTP; mean ± standard deviation, triplicate
T2 sequence (Q9Y253 1-437): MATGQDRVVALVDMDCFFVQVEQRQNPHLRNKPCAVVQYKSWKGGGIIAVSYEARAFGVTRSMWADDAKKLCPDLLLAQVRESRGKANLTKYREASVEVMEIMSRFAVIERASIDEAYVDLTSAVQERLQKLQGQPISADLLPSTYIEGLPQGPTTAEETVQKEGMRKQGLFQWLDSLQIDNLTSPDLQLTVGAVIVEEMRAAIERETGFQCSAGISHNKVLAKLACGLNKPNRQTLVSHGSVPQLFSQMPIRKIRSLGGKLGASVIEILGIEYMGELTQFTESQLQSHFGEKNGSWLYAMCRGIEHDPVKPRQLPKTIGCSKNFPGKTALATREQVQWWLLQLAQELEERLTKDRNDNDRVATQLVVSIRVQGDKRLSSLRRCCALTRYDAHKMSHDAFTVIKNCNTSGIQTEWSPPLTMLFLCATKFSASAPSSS

hetero-dimeric hpol γ = molecular target: T3, hetero-dimeric hpol γ (Homo sapiens, UniProt P54098); assay: Fluorescence-based polymerase assay, hpol γ
T3 sequence (P54098 1-1239): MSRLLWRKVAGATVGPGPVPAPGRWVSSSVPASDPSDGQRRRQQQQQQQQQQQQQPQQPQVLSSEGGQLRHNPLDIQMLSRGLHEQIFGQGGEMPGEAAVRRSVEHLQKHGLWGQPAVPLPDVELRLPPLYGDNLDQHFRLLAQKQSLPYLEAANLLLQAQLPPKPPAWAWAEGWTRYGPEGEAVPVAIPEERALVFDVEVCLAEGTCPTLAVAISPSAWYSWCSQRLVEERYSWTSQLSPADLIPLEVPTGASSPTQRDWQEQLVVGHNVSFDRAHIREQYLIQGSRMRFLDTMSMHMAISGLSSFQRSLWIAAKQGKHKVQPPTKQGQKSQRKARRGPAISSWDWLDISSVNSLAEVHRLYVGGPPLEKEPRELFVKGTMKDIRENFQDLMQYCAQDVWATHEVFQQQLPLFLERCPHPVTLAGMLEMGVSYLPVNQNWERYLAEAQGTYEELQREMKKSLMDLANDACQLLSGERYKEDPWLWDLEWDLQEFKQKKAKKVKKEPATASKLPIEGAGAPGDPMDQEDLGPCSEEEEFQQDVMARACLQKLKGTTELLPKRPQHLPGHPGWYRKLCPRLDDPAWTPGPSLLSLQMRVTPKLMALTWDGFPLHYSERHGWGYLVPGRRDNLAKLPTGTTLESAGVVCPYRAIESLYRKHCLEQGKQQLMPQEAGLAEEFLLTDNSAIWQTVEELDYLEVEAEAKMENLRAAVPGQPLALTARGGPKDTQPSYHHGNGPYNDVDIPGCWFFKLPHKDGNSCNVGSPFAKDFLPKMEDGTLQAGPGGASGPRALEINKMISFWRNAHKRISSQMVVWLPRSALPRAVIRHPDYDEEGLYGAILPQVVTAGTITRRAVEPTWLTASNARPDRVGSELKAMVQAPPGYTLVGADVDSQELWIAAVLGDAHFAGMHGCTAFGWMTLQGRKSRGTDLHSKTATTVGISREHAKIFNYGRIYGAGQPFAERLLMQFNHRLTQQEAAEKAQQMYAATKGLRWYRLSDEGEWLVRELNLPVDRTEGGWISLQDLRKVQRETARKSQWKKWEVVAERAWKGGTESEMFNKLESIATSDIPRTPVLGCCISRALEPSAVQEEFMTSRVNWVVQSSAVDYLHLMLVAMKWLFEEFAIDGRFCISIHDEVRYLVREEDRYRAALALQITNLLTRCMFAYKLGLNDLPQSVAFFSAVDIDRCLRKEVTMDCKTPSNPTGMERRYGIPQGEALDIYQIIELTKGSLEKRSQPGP
T3 sequence (Q9UHN1 26-485 partner limits assumed): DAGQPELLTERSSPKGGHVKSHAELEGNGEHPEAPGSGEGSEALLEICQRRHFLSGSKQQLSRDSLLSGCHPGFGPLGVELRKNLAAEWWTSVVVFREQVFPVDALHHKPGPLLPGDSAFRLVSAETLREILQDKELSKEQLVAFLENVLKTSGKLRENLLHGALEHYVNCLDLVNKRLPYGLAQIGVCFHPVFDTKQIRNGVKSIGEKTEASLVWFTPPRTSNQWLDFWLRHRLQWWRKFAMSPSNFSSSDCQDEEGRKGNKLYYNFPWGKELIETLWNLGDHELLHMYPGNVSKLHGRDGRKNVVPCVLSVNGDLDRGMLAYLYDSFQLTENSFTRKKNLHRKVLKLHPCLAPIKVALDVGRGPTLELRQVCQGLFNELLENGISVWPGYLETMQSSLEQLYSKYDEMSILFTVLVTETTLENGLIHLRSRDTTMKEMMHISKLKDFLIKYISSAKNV

## O=C1NC(=S)NC(=O)C1=Cc1cn(C(=O)c2ccccc2Br)c2ccc(Cl)cc12 [ITBA-12, 5-((1-(2-bromobenzoyl)-5-chloro-1H-indol-3-yl)methylene)-2-thioxodihydropyrimidine-4,6(1H,5H)-dione]
[1]
  IC50: 59 ± 11 µM
[1]; hpol κ versus hpol η
  IC50 for hpol κ relative to hpol η: twice as high
[2]
  IC50: 29.8 ± 2.7 µM
hetero-dimeric hpol γ
  IC50: 49 ± 6 µM
